Data published in ChEMBL document CHEMBL1806462, “Discovery of pyrrolo[2,1-f][1,2,4]triazine C6-ketones as potent, orally active p38α MAP kinase inhibitors” (Bioorg Med Chem Lett, 2011).

Tests used:
Liver microsomes = assay: Clearance in human liver microsomes; assay type: ADME, Microsome
[1] = Cmax in rat at 10 mg/kg, po; assay type: ADME, organism-based; parameters: dose 10 mg/kg, route oral; conditions: in vivo
[2] = Plasma concentration in rat at 10 mg/kg, po after 4 hrs; assay type: ADME, organism-based; parameters: dose 10 mg/kg, route oral
Rattus norvegicus = assay: AUC (0 to 4 hrs) in rat at 10 mg/kg, po; assay type: ADME, organism-based, Plasma; parameters: time < 4 hr, dose 10 mg/kg, route oral; conditions: in vivo

| CL (Liver microsomes) [nmol/min/mg] | Cmax [1] [ng/mL] | concentration at 4 h [2] [ng/mL] | AUC (Rattus norvegicus) [ng·h/mL] | SMILES |
| --- | --- | --- | --- | --- |
| 0.16 |  |  |  | COC(=O)NC(=O)c1ccc(C)c(Nc2ncnn3cc(C(=O)c4ccccc4)c(C)c23)c1 |
| 0.08 | 752 | 550 | 2300 | Cc1ccc(C(=O)NC2CC2)cc1Nc1ncnn2cc(C(=O)c3ccccc3)c(C)c12 |
